The record followed here is EP0262209B1, “SYNERGISTIC PLANT GROWTH REGULATOR COMPOSITIONS” (RHONE POULENC NEDERLAND B.V., priority 1986, dated 1987).

The inhibition is how much of the control response was suppressed.

The test system of assay [1] is snapbean plants. The experiment in a line: Defoliation of snapbean plants with various ethylene releasing agents (Example XVI, Table M). It is filed as in vivo, Phaseolus vulgaris var. Cranberry. The method, then:
(§1) Solutions of the test compounds and compositions identified in Table C below were prepared by dissolving the compounds in acetone/water (50:50 volume/volume) containing 0.1 percent volume/volume of Triton X-100 surfactant commercially available from Rhom and Haas Company, Philadelphia, Pennsylvania. As detailed below, these solutions of the test compounds and compositions were applied to snapbean plants at a concentration of 0.25 pounds of each active ingredient per acre (0.28 kg/ha) or 0.50 pounds of each active ingredient per acre (0.56 kg/ha). The compositions were applied to the snapbean plants as a mixture. Ethephon is commercially available from Union Carbide Agricultural Products Company, Inc., Research Triangle Park, North Carolina.
(§2) Into 13.5 centimeter diameter plastic pots containing a potting soil mix, i.e., one-third sandy loam soil, one-third peat moss and one-third perlite by volume, were sown three snapbean seeds (Phaseolus vulgaris var. Cranberry). Five to seven days after planting, the plants were thinned to one plant per pot. Ten to fourteen days after planting at the time of full expansion of the primary leaves, each concentration of the test compounds and compositions identified in […] (each pot sprayed with a volume equivalent to 180 gallons per acre) - i.e. 1683 l/ha was applied to three snapbean plants as a foliar spray by use of an aspirated spray apparatus set at 10 psig air pressure (517 mmHg). As a control, a water-acetone solution containing no test compound or composition was also sprayed on three snapbean plants. When dry, all or the plants were placed in a greenhouse at a temperature of 80°F ± 5°F (27°C ± 3°C) and humidity of 50 percent ± 5 percent. At 96 hours after treatment, percent defoliation of the snapbean plants was determined by visual observation. The values obtained For the control and each test compound and composition were averaged to obtain the results in Table C.
In a manner similar to the procedure described in Example VI , the defoliation effect on snapbean plants was determined for representative synergistic compositions at various rates of application using various ethylene releasing agents identified in Table M below. The ethylene releasing agents used in […] are known materials which can be prepared by conventional methods.

The test system of assay [2] is cotton. Briefly: Defoliation of cotton at various rates (Example XII, Table I). It is filed as in vivo. The conditions noted are these: Rate 0.5 Pounds per Acre, alone. As to the method:
(§3) Solutions of the test compounds and compositions identified in Table F were prepared by dissolving the compounds in acetone/water (50:50 volume/volume) containing 0.1 percent volume/volume of Surfel® spray adjuvant commercially available from Union Carbide Corporation, Danbury, Connecticut. As detailed below, these solutions of test compounds and compositions were applied to cotton plants at a concentration of 0.5 pounds of each active ingredient per acre (0,6 kg/ha) or 2.0 pounds of active ingredient per acre (2,2 kg/ha). The compositions were applied to cotton as mixtures.
(§4) The above solutions were applied to cotton plants growing under field conditions at a spray volume equivalent to 100 gallons per acre 935 l/ha) by use of a carbon dioxide backpack sprayer set at about 30 psig air pressure (2 bar). The application timing coincided with a cotton maturity phase equivalent to about 40 percent open bolls. As a control, a water-acetone solution containing no test compound or composition was also sprayed on the cotton plants. At four days after treatment, percent defoliation of the cotton plants was determined by visual observation. At 14 days after treatment, percent boll opening was determined by visual observation of the number of open bolls/total number of bolls. The percent defoliation and percent boll opening values obtained for the control and each of the test compounds and compositions are reported in Table F as the average of three replications. TABLE F
In a manner similar to the procedure described in Example IX , the defoliation effect on cotton was determined for representative synergistic compositions at various rates of application.

In assay [3] the test system is snapbean plants. Briefly: Defoliation of snapbean plants, foliar spray (Example VI, Table C). The conditions noted are these: Phaseolus vulgaris, foliar spray, 96 hours after treatment, read-out: Percent Defoliation; for pest or weed control at 280.212 g/ha: Rate 0.25 Pounds per Acre; for pest or weed control at 560.425 g/ha: Rate 0.50 Pounds per Acre. It is filed as in vivo, Phaseolus vulgaris var. Cranberry. The method, then:
as §1, §2

In the next assay the test system is cotton plants. Briefly: Defoliation and boll opening of cotton under field conditions (Example IX, Table F). It is filed as in vivo. Particulars: Rate 2.0 Pounds per Acre. Also noted: key to Percent Boil Opening: *: Percent boll opening essentially the same as the control as determined by visual observation. As to the method:
as §3, §4

For assay [4], the system named is snapbean plants. Briefly: Abscission of snapbean plant leaves with ethylene gas exposure (Example XVII, Table N). It is filed as in vivo, Phaseolus vulgaris var. Cranberry.
The subject of assay [5] is cotton. Briefly: Defoliation of cotton at various rates (Example XIII, Table J). It is filed as in vivo. The conditions noted are these: alone. As to the method: as §3, §4
In a manner similar to the procedure described in Example IX , the defoliation effect on cotton was determined for representative synergistic compositions at various rates of application. TABLE J

For a further assay, the system named is cotton plant. The experiment in a line: Regrowth of cotton following defoliation, DEF treated plant as standard (Example XIV, Table K). Format: in vivo. The conditions noted are these: regrowth relative to DEF standard (43 percent), Rate 0.5 Pounds per Acre, 30 days after treatment. The method, then: as §3, §4
In a manner similar to the procedure described in Example IX , the effect of cotton regrowth after defoliation was determined for representative synergistic compositions at various rates of application. The percent regrowth inhibition and stimulation in Table R below were determined by visual observation based on the percent of a cotton plant having regrowth using a DEF treated cotton plant as the standard. DEF is commercially available from Mobay Chemical Corporation, Kansas City, Missouri. The average regrowth of a cotton plant treated with DEF was 43 percent. As used in Table R, percent regrowth inhibition resulted from a cotton plant having a regrowth percentage less than 43 percent (DEF standard), and percent regrowth stimulation resulted from a cotton plant having a regrowth percentage greater than 43 percent. The percent regrowth inhibition and stimulation were determined 30 days after treatment.

The subject of another assay is rank growth cotton. The experiment in a line: Defoliation of cotton (rank growth) (Example X, Table G). Format: in vivo. Particulars: Rate 2.0 Pounds per Acre. The method, then: as §3, §4
In a manner similar to the procedure described in Example IX , the defoliation effect on rank growth cotton was determined for representative synergistic compositions at various rates of application. […] TABLE G

Assay [6] has as its system cotton. Briefly: Sequential applications, defoliation of cotton (Example XI, Table H). Particulars: alone. It is filed as in vivo. As to the method: In a manner similar to the procedure described in Example VI , the defoliation effect on snapbean plants was determined for representative synergistic compositions using both combination (tank mix) and sequential application methods. In the sequential application method, the second compound was applied 78 hours after the first compound. TABLE E
In a manner similar to the procedure described in Example VIII , the defoliation effect on cotton was determined for representative synergistic compositions using sequential application. Ethephon applications were made 7 days after application of the particular malonic acid derivative compound. TABLE H

Where [7] appears, read: Concentration 125 ppm foliar spray.
Where [8] appears, read: Concentration 250 ppm foliar spray.
Setting [9] is: Concentration 0.1 ppm ethylene gas.

Regarding `O=P(O)(CCCl)OCCCl` [2-Chloroethyl ester of 2-chloroethylphosphonic acid], the “Percent Defoliation” value in the assay with snapbean plants [1] (Rate 0.125 Pounds per Acre), in the assay with snapbean plants [1] (Rate 0.25 Pounds per Acre) and in the assay with snapbean plants [1] (Rate 0.50 Pounds per Acre) was 0% throughout.

With `NP(N)(=O)CCCl` [2-Chloroethylphosphonic diamide], the “Percent Defoliation” value in the assay on snapbean plants [1] (Rate 0.125 Pounds per Acre), in the assay on snapbean plants [1] (Rate 0.25 Pounds per Acre) and in the assay on snapbean plants [1] (Rate 0.50 Pounds per Acre) was 0% each time.

For the molecule `CCOC(=O)C1(C(=O)Nc2cc(Cl)c(Cl)cc2C)CC1` [Compound 77, ethyl 1-(2-methyl-4,5-dichlorophenylaminocarbonyl)cyclopropanecarboxylate], the “Percent Defoliation” value with cotton [2] is on record as 0%.

Consider `CCOC(=O)C1(C(=O)Nc2ccc(Cl)cc2Cl)CC1` [Compound 80], for which, in the assay on snapbean plants [3], the pest or weed control at 280.212 g/ha was 0% and the pest or weed control at 560.425 g/ha turned out to be 0%.

Turning to `CCOC(=O)C1(C(=O)Nc2ccc(Cl)cc2F)CC1` [Compound 82], in the assay on snapbean plants [3], the pest or weed control at 280.212 g/ha is 0% and the pest or weed control at 560.425 g/ha is 0%.

`CCOC(=O)C1(C(=O)Nc2ccc(Br)cc2Cl)CC1` [Compound 88]: in the assay with snapbean plants [3], the pest or weed control at 280.212 g/ha came to 0% and the pest or weed control at 560.425 g/ha was 0%.

For the molecule `CCOC(=O)C1(C(=O)Nc2ccc(Br)c(Cl)c2)CC1` [Compound 90], in the assay on snapbean plants [3], the pest or weed control at 280.212 g/ha was found to be 0% and the pest or weed control at 560.425 g/ha came out at 0%.

As for `Cc1cc(Cl)c(Cl)cc1NC(=O)C1(C(=O)O)CC1` [Compound 110, 1-(2-methyl-4,5-dichlorophenylaminocarbonyl)cyclopropanecarboxylic acid], the “Percent Defoliation” value with cotton [2] worked out at 0%.

For `Cc1cc(Br)ccc1NC(=O)C1(C(=O)O)CC1` [Compound 111], the “Percent Boil Opening” value in the assay on cotton plants (14 days after treatment, result given by footnote symbol, control 41) was “*”. The “Percent Defoliation” value in the assay on cotton plants (field conditions, four days after treatment) came out at 0%; in the assay on cotton [5] (Rate 0.25 Pounds per Acre), 0%; in the assay with cotton [5] (Rate 0.5 Pounds per Acre), 0%; in the assay on rank growth cotton, 0%; with cotton [6] (Rate 0.5 Pounds per Acre), 0%; in the assay with cotton [6] (Rate 1.0 Pounds per Acre), 0%. Besides, the “Percent Defoliation” value in the assay with snapbean plants [1] (Rate 0.125 Pounds per Acre), in the assay with snapbean plants [1] (Rate 0.25 Pounds per Acre) and in the assay with snapbean plants [1] (Rate 0.50 Pounds per Acre) was 0% each time. The figures for the “Percent Abscission 48 Hours” value in the assay with snapbean plants [4] (setting [7]) and in the assay on snapbean plants [4] (setting [8]) were 0% and 33%, respectively. Also, the “Percent Abscission 96 Hours” value is reported as 17% in the assay with snapbean plants [4] (setting [7]) and 50% in the assay on snapbean plants [4] (setting [8]). Further, the pest or weed control at 280.212 g/ha with snapbean plants [3] came out at 0%. Also, the pest or weed control at 560.425 g/ha in the assay with snapbean plants [3] stood at 0%. Further, in the assay with cotton plant (Gossypium hirsutum, 720 h, read-out: Percent Inhibition), the inhibition at 560.425 g/ha is 0%. The “Percent Stimulation” value with cotton plant stood at 0%.

As for `O=C(O)C1(C(=O)Nc2cc(Cl)c(Cl)cc2Cl)CC1` [Compound 112], in the assay with snapbean plants [3], the pest or weed control at 280.212 g/ha worked out at 0% and the pest or weed control at 560.425 g/ha came out at 0%.

On to `O=C(O)C1(C(=O)Nc2cc(Cl)ccc2Cl)CC1` [Compound 113], for which, in the assay with snapbean plants [3], the pest or weed control at 280.212 g/ha stood at 0% and the pest or weed control at 560.425 g/ha is 0%.

As for `O=C(O)C1(C(=O)Nc2ccc(Cl)cc2Cl)CC1` [Compound 114], in the assay with snapbean plants [3], the pest or weed control at 280.212 g/ha came to 0% and the pest or weed control at 560.425 g/ha was found to be 0%.

For the molecule `O=C(O)C1(C(=O)Nc2ccc(Cl)cc2F)CC1` [Compound 115], in the assay on snapbean plants [3], the pest or weed control at 280.212 g/ha came out at 0% and the pest or weed control at 560.425 g/ha was found to be 0%.

On to `O=C(O)C1(C(=O)Nc2ccc(Cl)cc2)CC1` [Compound 116], for which, in the assay on snapbean plants [3], the pest or weed control at 280.212 g/ha stood at 0% and the pest or weed control at 560.425 g/ha came to 0%.

On to `O=C(O)C1(C(=O)Nc2ccc(Br)cc2)CC1` [Compound 117], for which, in the assay with snapbean plants [3], the pest or weed control at 280.212 g/ha worked out at 0% and the pest or weed control at 560.425 g/ha stood at 0%.

As to `O=C(O)C1(C(=O)Nc2ccc(Br)cc2Br)CC1` [Compound 120], in the assay on snapbean plants [3], the pest or weed control at 280.212 g/ha was found to be 0% and the pest or weed control at 560.425 g/ha was found to be 0%.

`O=C(O)C1(C(=O)Nc2ccc(Br)cc2Cl)CC1` [Compound 121]: in the assay on snapbean plants [3], the pest or weed control at 280.212 g/ha turned out to be 0% and the pest or weed control at 560.425 g/ha came to 0%.

In the case of `O=C(O)C1(C(=O)Nc2ccc(Cl)cc2Br)CC1` [Compound 122], in the assay with snapbean plants [3], the pest or weed control at 280.212 g/ha stood at 0% and the pest or weed control at 560.425 g/ha was found to be 0%.

For `O=C(O)C1(C(=O)Nc2ccc(Br)c(Cl)c2)CC1` [Compound 123], in the assay with snapbean plants [3], the pest or weed control at 280.212 g/ha was 0% and the pest or weed control at 560.425 g/ha stood at 0%.

Regarding `C=C` [Ethylene Gas, ethylene, reference compound], in the assay on snapbean plants [4] (setting [9]), the “Percent Abscission 48 Hours” value came out at 0% and the “Percent Abscission 96 Hours” value is given as 0%.
